# Values of other authors as cited in patent US20120115783A1, “PEPTIDOMIMETIC MACROCYCLES” (Alleron therapeutics, Inc, priority 2008, published 2012).
# Test system: HCT116 tumour xenografts
smiles,measurement,setting,value
CN1C(=O)[C@]2(Cc3cn([C@]45C[C@@]67SS[C@@](CO)(C(=O)N6[C@H]4Nc4ccccc45)N(C)C7=O)c4ccccc34)SS[C@@]1(CO)C(=O)N2C [chetomin],growth of HCT116 tumour xenografts,HCT116 tumour xenografts,inhibited their growth
same,hypoxia-inducible transcription within HCT116 tumour xenografts,"within HCT116 tumour xenografts, pharmacological inhibition of HIF-1α",inhibited hypoxia-inducible transcription
